Results on 40 compounds are retold here after the Kinase Knowledgebase extract (Sharma et al. 2016).

For one experiment, the target named is ROCK2 (human) (UniProt O75116). Nature of the experiment: Enzyme Assay.
In the next experiment the target is CDK2 (human) (UniProt P24941). The experiment can be described thus: Enzyme Assay.

Chain of ROCK2 (human) (O75116 whole entry, looked up): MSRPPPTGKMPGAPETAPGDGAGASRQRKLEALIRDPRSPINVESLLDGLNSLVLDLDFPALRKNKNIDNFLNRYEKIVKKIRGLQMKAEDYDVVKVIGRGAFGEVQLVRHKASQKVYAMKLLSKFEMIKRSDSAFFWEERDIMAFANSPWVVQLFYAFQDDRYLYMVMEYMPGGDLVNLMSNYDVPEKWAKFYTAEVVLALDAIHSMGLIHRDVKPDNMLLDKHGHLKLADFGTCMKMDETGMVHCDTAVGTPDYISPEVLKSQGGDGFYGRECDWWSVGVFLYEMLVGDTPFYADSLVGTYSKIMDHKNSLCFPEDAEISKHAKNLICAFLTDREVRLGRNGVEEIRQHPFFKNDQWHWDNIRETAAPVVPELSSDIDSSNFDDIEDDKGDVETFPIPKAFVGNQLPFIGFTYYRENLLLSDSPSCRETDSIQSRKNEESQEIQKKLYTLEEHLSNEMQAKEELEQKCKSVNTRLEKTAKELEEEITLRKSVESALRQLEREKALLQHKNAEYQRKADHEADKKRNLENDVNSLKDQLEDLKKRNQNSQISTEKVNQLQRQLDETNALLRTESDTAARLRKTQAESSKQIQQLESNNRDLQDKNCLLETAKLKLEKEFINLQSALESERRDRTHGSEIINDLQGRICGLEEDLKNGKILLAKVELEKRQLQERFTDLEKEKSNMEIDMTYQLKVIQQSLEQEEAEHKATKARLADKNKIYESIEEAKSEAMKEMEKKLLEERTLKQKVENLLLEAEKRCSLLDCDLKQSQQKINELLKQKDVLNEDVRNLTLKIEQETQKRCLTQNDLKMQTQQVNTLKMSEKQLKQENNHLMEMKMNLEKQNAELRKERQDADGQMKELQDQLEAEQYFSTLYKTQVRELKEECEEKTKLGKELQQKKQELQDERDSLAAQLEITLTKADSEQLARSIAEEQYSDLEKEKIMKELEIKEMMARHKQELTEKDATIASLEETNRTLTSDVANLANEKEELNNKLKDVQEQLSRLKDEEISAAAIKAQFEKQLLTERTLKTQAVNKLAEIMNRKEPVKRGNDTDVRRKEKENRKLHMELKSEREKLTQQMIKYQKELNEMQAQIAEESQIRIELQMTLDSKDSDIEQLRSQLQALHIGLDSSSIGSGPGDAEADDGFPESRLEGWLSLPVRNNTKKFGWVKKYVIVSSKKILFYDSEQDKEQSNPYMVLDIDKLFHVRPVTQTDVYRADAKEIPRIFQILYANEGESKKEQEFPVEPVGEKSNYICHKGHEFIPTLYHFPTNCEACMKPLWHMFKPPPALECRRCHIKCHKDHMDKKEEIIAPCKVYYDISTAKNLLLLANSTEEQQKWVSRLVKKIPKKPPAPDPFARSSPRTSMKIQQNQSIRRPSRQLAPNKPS

`CC(C)(CO)CCCNc1cc(-c2c[nH]c3ncccc23)cc(Cl)n1`: the inhibitory constant (Ki) on ROCK2 (human) was 10 nM; at CDK2 (human) it was 100 nM.

For `NC(=O)c1ccc(-c2ccnc(N)n2)cc1N1CCCCC1`, the Ki was 1580 nM at ROCK2 (human) and 1260 nM on CDK2 (human). With `c1ccc(Cn2cc(-c3ccc4[nH]nc(-c5cn(Cc6ccccc6)nn5)c4c3)nn2)cc1`, the Ki is 126 nM on ROCK2 (human) and 5.01 nM on CDK2 (human). `Cc1c(C=O)c(O)n2c(nc3ccccc32)c1C#N`: at ROCK2 (human), the Ki was greater than 7940 nM. `Fc1ccc2c(c1)-c1n[nH]cc1CS2`: the inhibitory constant (Ki) at CDK2 (human) was found to be 20000 nM.

On to `CCNC(=O)c1[nH]nc(-c2cc(Cl)c(O)cc2O)c1-c1ccc(OC)cc1`, for which the figures for the Ki on ROCK2 (human) and at CDK2 (human) were 2510 nM and 6310 nM, respectively. In turn, `Cn1cncc1C(OCc1c(-c2ccc(OC(F)(F)F)cc2)cc(C#N)c(=O)n1C)c1ccc(C#N)cc1` (stereo not drawn) came in with a Ki on ROCK2 (human) greater than 7940 nM. Turning to `OCCNc1cc(-c2c[nH]c3ncccc23)cc(Cl)n1`, the inhibition constant (Ki) at ROCK2 (human) was 20 nM; on CDK2 (human), 316 nM. As for `Cc1ccc(Nc2nccc(Nc3ccccc3C(=O)O)n2)cc1F`, the Ki at ROCK2 (human) was greater than 7940 nM; on CDK2 (human), 398 nM. The matching figures for `O=C1Nc2ccccc2Nc2cc(-c3ccncc3)ccc21`: 316 nM and 1000 nM. Taken in the same sequence, the figures for `O=C(O)c1ccccc1Nc1ncnc(Nc2ccc3cn[nH]c3c2)n1` were greater than 5010 nM and 316 nM. `O=C(Nc1cccc(C(F)(F)F)n1)Nc1ccnc2ccc(F)cc12` displayed an inhibition constant Ki at ROCK2 (human) greater than 3980 nM. Turning to `C=CCNc1cc(-c2c[nH]c3ncccc23)cc(Cl)n1`, the figures for the inhibition constant (Ki) on ROCK2 (human) and on CDK2 (human) were 12.6 nM and 100 nM, respectively. Take `Cc1cc(=O)n2[nH]cc(C(=O)NCc3ccccc3)c2n1`: the Ki on ROCK2 (human) stood at 2510 nM. Still for that read-out and setting: next, `CS(=O)(=O)N(Cc1ccc2[nH]c(=O)c3cccn3c2c1)C1CC1`: greater than 7940 nM.

Consider `c1ccc(Cn2nnc(-c3ccc4[nH]ncc4c3)c2-c2ccccc2)cc1`, for which the Ki on CDK2 (human) was found to be 63.1 nM. Take `Nc1ncnc2c1c(-c1cnc3[nH]ccc3c1)nn2C1CCCC1`: the Ki at ROCK2 (human) worked out at 39.8 nM. On to `CN(C)CCCOc1cc(-c2ccncc2)cc2[nH]nc(N)c12`, for which the Ki turned out to be 251 nM on ROCK2 (human) and 3160 nM at CDK2 (human). On CDK2 (human), `CCn1c(-c2nonc2N)nc2cnc(Oc3cccc(NC(=O)c4ccc(OCCN5CCOCC5)cc4)c3)cc21` gave an inhibitory constant (Ki) of 794 nM. `CN(C)c1ccc(-c2c(-c3ccc4[nH]nc(N)c4c3)nnn2Cc2ccccc2)cc1`: the Ki turned out to be 20 nM on ROCK2 (human) and 126 nM at CDK2 (human). The matching figures for `CC(C)(O)CNc1cc(-c2c[nH]c3ncccc23)cc(Cl)n1`: 15.8 nM and 251 nM. Regarding `Cc1cccc(NC(=O)Nc2ccc3c(c2)CCc2sc4ncnc(N)c4c2-3)c1`, at ROCK2 (human), the Ki is 79.4 nM.

Consider `CN1CCN(c2nc(C3=C(c4c[nH]c5ccccc45)C(=O)NC3=O)c3ccccc3n2)CC1`, for which the figures for the Ki at ROCK2 (human) and on CDK2 (human) were greater than 7940 nM and 126 nM, respectively. In the case of `COCCNc1cc(-c2c[nH]c3ncccc23)cc(Cl)n1`, the Ki at ROCK2 (human) was 5.01 nM; at CDK2 (human) it was 251 nM. Take `Nc1n[nH]c2ccc(-c3nnn(Cc4ccccc4)c3C3CC3)cc12`: the inhibitory constant (Ki) is 20 nM on ROCK2 (human) and 79.4 nM at CDK2 (human). The matching figures for `Cc1cccc(CNc2cc(-c3c[nH]c4ncccc34)ncn2)c1`: 12.6 nM and 39.8 nM.

As for `O=C(O)c1ccccc1Nc1ccnc(NCc2cccc(O)c2)n1`, at ROCK2 (human), the inhibition constant Ki was greater than 7940 nM.

The compound `c1ccc(-c2n[nH]cc2-c2ccncc2)cc1` yielded an inhibitory constant (Ki) at CDK2 (human) of 12600 nM.

Take `CC(C)(C)Oc1cc(-c2ccncc2)cc2[nH]nc(N)c12`: the inhibition constant Ki on ROCK2 (human) stood at 50.1 nM; on CDK2 (human), 126 nM. With `Cc1ccc2nccc(NC(=O)Nc3cccc(C(F)(F)F)n3)c2c1`, the inhibitory constant (Ki) at ROCK2 (human) is greater than 6310 nM; on CDK2 (human), 79.4 nM. Take `Fc1cccc(-c2c[nH]c3ncccc23)c1`: the inhibition constant Ki was determined as 316 nM on ROCK2 (human) and 1260 nM on CDK2 (human).

Compound `FC(F)(F)c1ccccc1CNc1nccc(-c2c[nH]c3ncccc23)n1` yielded an inhibitory constant (Ki) at CDK2 (human) of 5.01 nM. The compound `CCOC(=O)c1c[nH]n2c(=O)cc(-c3ccncc3)nc12` returned a Ki at ROCK2 (human) of 2000 nM.

For the compound `Nc1noc2cccc(-c3cccc(O)c3)c12`, the Ki at ROCK2 (human) is 251 nM. Turning to `COc1ccc(C(=O)Nc2n[nH]c3ccc(-c4cn(Cc5ccccc5)nn4)cc23)cc1OC`, the Ki was determined as 794 nM at ROCK2 (human) and 12.6 nM on CDK2 (human). Consider `Cc1cccc(CNc2cc(-c3c[nH]c4ncccc34)cc(Cl)n2)c1C`, for which the inhibitory constant (Ki) at ROCK2 (human) worked out at 31.6 nM; at CDK2 (human), 200 nM. In turn, `NC1CCCCC1Nc1nccc(Nc2ccccc2C(=O)O)n1` (stereo not drawn) gave an inhibition constant (Ki) at ROCK2 (human) greater than 7940 nM. Turning to `O=C(Nc1n[nH]c2ccc(-c3cn(Cc4ccccc4)nn3)cc12)c1cc(F)ccc1F`, the Ki on ROCK2 (human) was greater than 5010 nM; at CDK2 (human) it was 25.1 nM. `CCCCNc1cc(-c2c[nH]c3ncccc23)ncn1`: the results for the Ki on ROCK2 (human) and on CDK2 (human) were 20 nM and 200 nM, respectively. Consider `CC(C)(CO)CNc1nccc(-c2c(-c3ccc(F)cc3)nc3c(CC4CC4)nccn23)n1`, for which the inhibition constant Ki at ROCK2 (human) was greater than 7940 nM.

The Ki is the equilibrium dissociation constant of an inhibitor or competing ligand from its target.
